Consider one molecule from ChEMBL document CHEMBL5223129, “Antioxidant, Anti-inflammatory, and Immunomodulatory Roles of Nonvitamin Antioxidants in Anti-SARS-CoV-2 Therapy” (J Med Chem, 2022).

pIC50: −log10 of the molar value.

The assay relates to SARS-CoV-2. The assay can be described thus: Antiviral activity against pseudovirus SARS-CoV-2 spike protein infected human HEK293T cells overexpressing ACE2 assessed as inhibition of viral infection incubated for 96 hrs by GFP fluorescence based method. The format is functional, organism-based. Conditions: Severe acute respiratory syndrome coronavirus 2, HEK-293T.

As usually defined, the pIC50 is the IC50 on a negative log10 scale, so that one unit is a factor of ten. With `CC1=C[C@H](O)CC(C)(C)[C@H]1/C=C/C(C)=C/C=C/C(C)=C/C=C/C=C(C)/C=C/C=C(\CO)C(=O)CC1=C(C)C[C@@H](O)CC1(C)C`, the negative logarithm of the IC50 (pIC50) was 4.06.
